Source: patent US5631401A, “Inhibitors of protein farnesyltransferase and squalene synthase” (Abbott Laboratories, priority 1995, dated 1997)

How the values were obtained:
[1] = biological target: T1, Rat brain protein farnesyltransferase (Rattus norvegicus, UniProt Q02293+Q04631); assay: In vitro inhibition of protein farnesyltransferase (biotin-lamin substrate, scintillation proximity assay); assay type: biochemical; conditions: for inhibition at 10 µM: compared to uninhibited control; for inhibition at 1 µM: 1 μM (footnote *), read-out: % Inhibition at 1 μM (protein farnesyltransferase, values marked *)
T1 construct: The enzyme was purified according to Reiss, Y., et al., Cell, 62: 81-88 (1990), utilizing steps one through three; from tissue; host or cells: rat brain
Protocol: In vitro inhibition of protein farnesyltransferase may be measured by the following procedure. (Procedures for determination of the inhibition of farnesylation of the oncogene protein Ras are described by Goldstein, et al., J. Biol. Chem., 266: 15575-15578 (1991) and by Singh in U.S. Pat. No. 5,245,061 both of which are incorporated herein by reference.)
Rat brain protein farnesyltransferase activity was measured using the biotin-lamin substrate (which is known to undergo farnesylation in a manner analogous to Ras protein) and radioactive farnesyl diphosphate provided by Amersham Life Science in their commercial scintillation proximity assay kit for the determination of farnesyltransferase. The enzyme was purified according to Reiss, Y., et al., Cell, 62: 81-88 (1990), utilizing steps one through three. The specific activity of the enzyme was approximately 10 nmol substrate farnesylated/mg enzyme/hour. […]

[2] = biological target: T2, Rat liver microsomal squalene synthase (Rattus norvegicus, UniProt Q02769); assay: In vitro inhibition of squalene synthase (rat liver microsomes, 3H-farnesyl diphosphate); assay type: biochemical; conditions: for inhibition at 1 µM: compared to controls with no test compound; for inhibition at 10 µM: 10 μM (footnote *), read-out: % Inhibition at 10 μM (squalene synthase, values marked *)
T2 construct: Rat liver microsomes, the source of enzyme, were prepared; from tissue; host or cells: rat liver microsomes
T2 sequence (Q02769 1-416): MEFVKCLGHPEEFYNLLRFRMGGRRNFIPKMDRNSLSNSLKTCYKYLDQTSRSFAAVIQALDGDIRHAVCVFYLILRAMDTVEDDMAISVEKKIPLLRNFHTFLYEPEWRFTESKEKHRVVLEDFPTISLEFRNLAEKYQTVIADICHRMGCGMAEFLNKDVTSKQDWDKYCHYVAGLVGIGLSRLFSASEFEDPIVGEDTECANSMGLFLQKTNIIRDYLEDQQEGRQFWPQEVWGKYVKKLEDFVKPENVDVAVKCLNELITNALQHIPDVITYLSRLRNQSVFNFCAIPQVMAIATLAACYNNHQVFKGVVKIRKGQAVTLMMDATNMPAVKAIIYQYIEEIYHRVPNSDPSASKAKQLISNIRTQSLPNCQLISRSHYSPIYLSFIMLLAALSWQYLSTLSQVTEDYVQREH
Protocol: In vitro inhibition of squalene synthase may be measured by the following procedure.
Rat liver microsomal squalene synthase activity was measured using radioactive farnesyl diphosphate as a substrate and quantitating squalene synthesis by counting the radioactive squalene formed.
Rat liver microsomes, the source of enzyme, were prepared according to the method of Gillies, P. J., et al., Exp. Molec. Pathol. 44: 329-339 (1986), a modification of the procedure of Erickson, S. K., and Cooper, A. D., Metabolism, 29: 991-996 (1980). Approximately 30 μg of microsomal protein was incubated for 10 minutes at 37° C. with 11 μM of ^3 H-farnesyl diphosphate, 49 mCi/mmol, and test compound in the presence of squalene (2 μL), Mg^++, KF, reduced B-nicotinamide adenine dinucleotide phosphate, dithiothreitol, and K2 PO4, pH 7.35, in a total volume of 200 μL. Oxygen was excluded from the closed incubation tube by degassing with nitrogen. The reaction was terminated by the addition of ethanolic KOH and after degassing with N2, the microsomal membranes were solubilized by heating at 60° C. for 30 minutes. The squalene was extracted into hexane, and the squalene was separated from all other radioactive molecules by passage over an activated alumina column. The solution was collected in scintillation vials, evaporated to dryness, liquid scintillation fluid was added, and the radioactivity was determined in a liquid scintillation counter. […]

inhibition at 10 µM [1] | inhibition at 1 µM [2] | inhibition at 1 µM [1] | inhibition at 10 µM [2] | Compound
67% | 36% |  |  | COC(=O)CN(Cc1ccc(Oc2ccccc2)cc1)C(=O)[C@H]1[C@H](C(=O)O)[C@H](C(=O)N(CC(=O)OC)Cc2ccc(Oc3ccccc3)cc2)[C@H]1C(=O)O [Example 42, (1α,2β,3β,4α)-1,3-Di[N-methoxycarbonylmethyl-N-(4-phenoxybenzyl)aminocarbonyl]cyclobutane-2,4-dicarboxylic acid]
 | 49% | 94% |  | CCCN(Cc1ccc(Oc2ccccc2)cc1)C(=O)[C@H]1[C@H](C(=O)O)[C@H](C(=O)N(Cc2ccccc2)Cc2ccc(Oc3ccccc3)cc2)[C@H]1C(=O)O (relative stereo) [Example 40, (1α,2β,3β,4α)-1-[N-Propyl-N-(4-phenoxybenzyl)aminocarbonyl]-3-[N-benzyl-N-(4-phenoxybenzyl)aminocarbonyl]cyclobutane-2,4-dicarboxylic acid]
77% | 76% |  |  | CCSCCN(Cc1ccc(Oc2ccccc2)cc1)C(=O)C1C(C(=O)O)C(C(=O)N(CCSCC)Cc2ccc(Oc3ccccc3)cc2)C1C(=O)O (stereo not drawn) [Example 70, (1α,2β,3β,4α)-1,3-Di[N-(2-ethylthioethyl)-N-(4-phenoxybenzyl)aminocarbonyl]cyclobutane-2,4-dicarboxylic acid]
54% |  |  | 40% | CC(C)=CCC/C(C)=C/CCN(C)C(=O)[C@H]1[C@H](C(=O)O)[C@H](C(=O)N(C)CC/C=C(\C)CCC=C(C)C)[C@H]1C(=O)O [Example 32, (1α,2β,3β,4α)-1,3-Di[N-methyl-N-(4,8-dimethyl-3,7-nonadienyl)aminocarbonyl]cyclobutane-2,4-dicarboxylic acid]
64% | 33% |  |  | CCCN(Cc1ccc(Sc2ccccc2)cc1)C(=O)C1C(C(=O)O)C(C(=O)N(CCC)Cc2ccc(Sc3ccccc3)cc2)C1C(=O)O (stereo not shown) [Example 64]
 | 47% | 61% |  | CCCN(CCc1ccc(Oc2ccccc2)cc1)C(=O)C1C(C(=O)O)C(C(=O)N(CCC)CCc2ccc(Oc3ccccc3)cc2)C1C(=O)O (stereo not drawn) [Example 67, (1α,2β,3β,4α)-1,3-Di[N-propyl-N-(2-(4-phenoxyphenyl)ethyl)aminocarbonyl]cyclobutane-2,4-dicarboxylic acid]
37% | 48% |  |  | CC[C@@H](C)N(Cc1ccc(Oc2ccccc2)cc1)C(=O)[C@H]1[C@H](C(=O)O)[C@H](C(=O)N(Cc2ccc(Oc3ccccc3)cc2)[C@H](C)CC)[C@H]1C(=O)O [Example 102, (1α,2β,3β,4α)-1,3-Di[N-((2R)-Sec-butyl)-N-(4-phenoxybenzyl)aminocarbonyl]cyclobutane-2,4-dicarboxylic acid]
99% | 20% |  |  | O=C(O)[C@H]1[C@H](C(=O)N(Cc2ccc(F)cc2)Cc2ccc(Oc3ccccc3)cc2)[C@H](C(=O)O)[C@H]1C(=O)N(Cc1ccc(F)cc1)Cc1ccc(Oc2ccccc2)cc1 [Example 94, (1α,2β,3β,4α)-1,3-Di[N-(4-fluorobenzyl)-N-(4-phenoxybenzyl)aminocarbonyl]cyclobutane-2,4-dicarboxylic acid]
83% | 32% |  |  | O=C(O)[C@H]1[C@H](C(=O)N(CCc2ccccc2)Cc2ccc(Oc3ccccc3)cc2)[C@H](C(=O)O)[C@H]1C(=O)N(CCc1ccccc1)Cc1ccc(Oc2ccccc2)cc1 [Example 78, (1α,2β,3β,4α)-1,3-Di [N-(4-phenoxybenzyl)-N-phenethylaminocarbonyl]cyclobutane-2,4-dicarboxylicacid]
27% |  |  | 33% | CN(Cc1ccc(Oc2ccc(F)cc2)cc1)C(=O)[C@H]1[C@H](C(=O)O)[C@H](C(=O)N(C)Cc2ccc(Oc3ccc(F)cc3)cc2)[C@H]1C(=O)O [Example 21, (1α,2β,3β,4α)-1,3-Di(N-methyl-N-(4-(4-fluorophenoxy)benzyl)aminocarbonyl)cyclobutane-2,4-dicarboxylic acid]
51% | 42% |  |  | O=C(O)[C@H]1[C@H](C(=O)N(CCCCc2ccccc2)Cc2ccc(Oc3ccccc3)cc2)[C@H](C(=O)O)[C@H]1C(=O)N(CCCCc1ccccc1)Cc1ccc(Oc2ccccc2)cc1 [Example 80, (1α,2β,3β,4α)-1,3-Di [N-(4-phenoxybenzyl)-N-(4-phenyl-1-butyl)aminocarbonyl]cyclobutane-2,4-dicarboxylic acid]
36% | 41% |  |  | O=C(O)[C@H]1[C@H](C(=O)N(Cc2ccc(Oc3ccccc3)cc2)CC2CCCCC2)[C@H](C(=O)O)[C@H]1C(=O)N(Cc1ccc(Oc2ccccc2)cc1)CC1CCCCC1 [Example 91]
68% | 44% |  |  | CCCN(Cc1ccc(Nc2ccccc2)cc1)C(=O)[C@H]1[C@H](C(=O)O)[C@H](C(=O)N(CCC)Cc2ccc(Nc3ccccc3)cc2)[C@H]1C(=O)O [Example 63]
69% | 23% |  |  | CCCN(Cc1ccc(Oc2ccccc2)s1)C(=O)C1C(C(=O)O)C(C(=O)N(CCC)Cc2ccc(Oc3ccccc3)s2)C1C(=O)O (stereo not drawn) [Example 53, (1α,2β,3β,4α)-1,3-Di[N-propyl-N-(5-phenoxythien-2-ylmethyl)aminocarbonyl]cyclobutane-2,4-dicarboxylic acid]
38% |  |  | 50% | CCCCCN(Cc1ccc(Oc2ccccc2)cc1)C(=O)[C@H]1[C@H](C(=O)O)[C@H](C(=O)N(CCCCC)Cc2ccc(Oc3ccccc3)cc2)[C@H]1C(=O)O [Example 29, (1α,2β,3β,4α)-1,3-Di(N-pentyl-N-(4-phenoxybenzyl)aminocarbonyl)cyclobutane-2,4-dicarboxylic acid]
40% |  |  | 29% | O=C(O)[C@H]1[C@H](C(=O)N(Cc2ccccc2)Cc2ccc(Cl)cc2)[C@H](C(=O)O)[C@H]1C(=O)N(Cc1ccccc1)Cc1ccc(Cl)cc1 [Example 34, (1α,2β,3β,4α)-1,3-Di[N-benzyl-N-(4-chlorobenzyl)aminocarbonyl]cyclobutane-2,4-dicarboxylic acid]
78% |  |  | 47% | CN(Cc1cccc(Oc2ccc(F)cc2)c1)C(=O)[C@H]1[C@H](C(=O)O)[C@H](C(=O)N(C)Cc2cccc(Oc3ccc(F)cc3)c2)[C@H]1C(=O)O [Example 22, (1α,2β,3β,4α)-1,3-Di[N-methyl-N-(3-(4-fluorophenoxy)benzyl)aminocarbonyl]cyclobutane-2,4-dicarboxylic acid]
31% |  |  | 85% | CC(C)N(Cc1ccc(Oc2ccccc2)cc1)C(=O)[C@H]1[C@H](C(=O)O)[C@H](C(=O)N(Cc2ccc(Oc3ccccc3)cc2)C(C)C)[C@H]1C(=O)O [Example 24]
66% | 23% |  |  | COc1cccc(CCN(Cc2ccc(Oc3ccccc3)cc2)C(=O)[C@H]2[C@H](C(=O)O)[C@H](C(=O)N(CCc3cccc(OC)c3)Cc3ccc(Oc4ccccc4)cc3)[C@H]2C(=O)O)c1 [Example 76, (1α,2β,3β,4α)-1,3-Di[N-(4-phenoxybenzyl)-N-(3-methoxyphenethyl)aminocarbonyl]cyclobutane-2,4-dicarboxylic acid]
 | 24% | 92% |  | O=C(O)[C@H]1[C@H](C(=O)N(Cc2ccc(Oc3ccccc3)cc2)Cc2cccs2)[C@H](C(=O)O)[C@H]1C(=O)N(Cc1ccc(Oc2ccccc2)cc1)Cc1cccs1 [Example 73, (1α,2β,3β,4α)-1,3-Di[N-(thien-2-ylmethyl)-N-(4-phenoxybenzyl)aminocarbonyl]cyclobutane-2,4-dicarboxylic acid]
